Source: patent publication US20240334931A1, “NEMATICIDAL COMPOSITION” (ISHIHARA SANGYO KAISHA, LTD., priority 2021, published 2024)

How the values were obtained:
Assay type in all cases: in vivo
[1] = test system: southern root-knot nematode (Meloidogyne incognita); experiment: Test on effects against southern root-knot nematode: treated contaminated soil, cucumber pot test (Test Example 1 and Comparative Test); parameters: key: 0: No knot formed on the root at all; 1: Knots formed to a slight degree; 2: Knots formed to a moderate degree; 3: Knots formed to a heavy degree; 4: Knots formed to the heaviest degree
Method: The treated soil was put into a pot, three cucumber seeds were sown, and the pot was placed in a greenhouse. Two to three weeks after the sowing of the cucumber seeds, the root knot index was determined based on the degree of formation of root knots shown in Table 5. Each composition containing Compound No. […]-192 or B-196 at a concentration of 400 ppm and the composition containing Compound No. […] [table] […] Root knot index of 2 corresponds to a state where the proportion of healthy roots is 50% or less to the entire roots, and indicates control effects to such an extent that cucumber as a crop plant to be tested cannot healthily grow.

[2] = test system: soybean cyst nematode (Heterodera glycines); experiment: Test on effects against soybean cyst nematode: treated contaminated soil, soybean pot test (Test Example 3); parameters: key: 0: No parasitic cyst observed on the roots at all; 1: Parasitic cyst observed to a slight degree; 2: Parasitic cyst observed to a moderate degree; 3: Parasitic cyst observed to a heavy degree; 4: Parasitic cyst observed densely on the entire roots; conditions: 10 ml poured to 200 ml contaminated soil, about one month after sowing
Method: . The treated soil was put into a pot, three soybean seeds were sown, and the pot was placed in a greenhouse. About one month after the sowing of the soybean seeds, the parasite index was determined based on the cyst parasite level on the roots shown in Table 7.

[3] = test system: Cobb root-lesion nematode (Pratylenchus penetrans); experiment: Test on effects against Cobb root-lesion nematode: treated contaminated soil, burdock pot test (Test Example 2); parameters: key: 0: No injury; 1: Slight injury; 2: Moderate injury; 3: Heavy injury; 4: Heaviest injury; conditions: 800 ppm, 10 ml poured to 200 ml contaminated soil, about one month after sowing
Method: . The treated soil was put into a pot, three burdock seeds were sown, and the pot was placed in a greenhouse. About one month after the sowing of the burdock seeds, the injury index was determined based on the root injury level shown in Table 6.

[4] = 400 ppm, 10 ml poured to 200 ml contaminated soil, cucumber, two to three weeks after sowing
[5] = Comparative Test, active ingredient concentration 50 ppm, otherwise as Test Example 1 (cucumber)

| SMILES | root knot index [1, 4] | parasite index ([2]; 400 ppm) | injury index [3] | root knot index [1, 5] | parasite index ([2]; 800 ppm) | root knot index ([1]; […], cucumber, two to three weeks after sowing) |
| --- | --- | --- | --- | --- | --- | --- |
| O=CNN=C(c1ccc(F)cc1)C1(n2cnc(C(F)(F)F)n2)CC1 (single isomer, unassigned) [B-106] | 1 | 1 |  |  |  |  |
| CC(C)(C(=NNC=O)c1ccccc1)n1ccc(C(F)(F)F)n1 [A-1, N′-(2-methyl-1-phenyl-2-(3-trifluoromethyl-1H-pyrazol-1-yl)propylidene) formhydrazide] | 1 |  | 1 | 1 | 1 |  |
| CC(C)(C(=NNC=O)c1ccccc1)n1cnc(C(F)(F)F)n1 [A-2] | 1 |  |  | 0 | 1 |  |
| CC(C)(C(=NNC=O)c1ccc(Cl)cc1)n1ccc(C(F)(F)F)n1 [A-89] | 1 |  |  |  | 1 |  |
| CC(C)(C(=NNC=O)c1ccc(F)cc1)n1ccc(C(F)(F)F)n1 [A-107] | 1 |  |  |  | 1 |  |
| CC(C)(C(=NNC=O)c1ccccc1C(F)(F)F)n1ccc(C(F)(F)F)n1 [A-260] | 1 | 1 |  |  |  |  |
| CC(C)(C(=NNC=O)c1ccccc1OC(F)(F)F)n1cnc(C(F)(F)F)n1 [A-271] | 1 |  |  |  | 1 |  |
| CC(C)(C(=NNC=O)c1cccc(F)c1)n1ccc(C(F)(F)F)n1 [A-274] | 1 |  |  |  | 1 |  |
| CC(C)(C(=NNC=O)c1cccc(F)c1)n1ccc(Br)n1 [A-279] | 1 |  |  |  | 1 |  |
| CC(C)(C(=NNC=O)c1cccc(Cl)c1)n1ccc(C(F)(F)F)n1 [A-318] | 1 |  | 1 | 1 | 1 |  |
| CC(C)(C(=NNC=O)c1cccc(Cl)c1)n1cnc(C(F)(F)F)n1 [A-319] | 1 |  |  |  | 1 |  |
| Cc1cccc(C(=NNC=O)C(C)(C)n2ccc(C(F)(F)F)n2)c1 [A-322] | 1 |  |  |  | 1 |  |
| Cc1cccc(C(=NNC=O)C(C)(C)n2cnc(C(F)(F)F)n2)c1 [A-323, N′-(2-methyl-1-(3-methylphenyl)-2-(3-trifluoromethyl-1H-triazol-1-yl)propylidene) formhydrazide] |  |  |  |  | 1 | 1 |
| COc1cccc(C(=NNC=O)C(C)(C)n2ccc(C(F)(F)F)n2)c1 [A-328] | 1 |  |  |  | 1 |  |
| CC(C)(C(=NNC=O)c1cccc(Cl)c1Cl)n1cnc(C(F)(F)F)n1 [A-333] | 1 |  |  |  | 1 |  |
| CC(C)(C(=NNC=O)c1cc(F)ccc1Cl)n1cnc(C(F)(F)F)n1 [A-352] | 1 |  |  |  | 1 |  |
| CC(C)(C(=NNC=O)c1cccc2c1OC(F)(F)O2)n1cnc(C(F)(F)F)n1 [A-411] | 1 |  |  |  | 1 |  |
| CC(C)(C(=NNC=O)c1cccc2c1OC(F)(F)O2)n1ccc(C#N)n1 [A-416] | 1 |  |  |  | 1 |  |
| O=CNN=C(c1ccccc1)C1(n2ccc(C(F)(F)F)n2)CC1 [B-1, N′-(phenyl(1-(3-trifluoromethyl-1H-pyrazol-1-yl)cyclopropyl)methylene) formhydrazide] | 1 |  | 1 |  | 1 |  |
| Cc1ccccc1C(=NNC=O)C1(n2ccc(C(F)(F)F)n2)CC1 [B-196] | 1 |  |  |  | 1 |  |
